Source: US10030016B2 (Sunesis Pharmaceuticals, Inc., priority 2009, dated 2018)
Like-named read-outs stand apart in the source and are kept apart here.

Legend:
PDK1 = PDK1 (Homo sapiens (Human), UniProt O15530); test: PDK1 kinase assay (coupled PDK1/AKT/FAM-crosstide assay, IMAP fluorescence polarization); assay type: biochemical
How it was run: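 GST-tagged PDK1 (aa 51-359, 0.75 nM) was coupled to unphosphorylated GST-AKT2 140-467-PIFtide (10 nM) and 100 nM FAM-crosstide at 40 μM ATP, in Tris pH 7.2 buffer, for 30 min at 25 °C. Crosstide phosphorylation was read by IMAP fluorescence polarization (ΔmP) and fitted with a 4-parameter curve.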

[1] = system: phospho-akt (Thr308) in PC-3 cells; test: Inhibition of phospho-akt (Thr308) in PC-3 cells, MSD phospho-akt 308 ELISA kit; assay type: cell-based; settings: 2 hours, no serum, read-out: EC50
How it was run: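 Read-out is MSD electrochemiluminescence of Akt phosphorylated at Thr308 in lysates of PC-3 cells treated 2 h with compound in serum-free medium. Wortmannin at 5 μM defined the low control and DMSO the high control.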

[2] = Homo sapiens, inhibition of P308 Akt in PC-3 cells using MSD
[3] = inhibition of phospo-PDK1 in vitro
[4] = Homo sapiens, inhibition of P308 Akt in PC-3 cells, MSD

PDK1, sequence (O15530 51-359): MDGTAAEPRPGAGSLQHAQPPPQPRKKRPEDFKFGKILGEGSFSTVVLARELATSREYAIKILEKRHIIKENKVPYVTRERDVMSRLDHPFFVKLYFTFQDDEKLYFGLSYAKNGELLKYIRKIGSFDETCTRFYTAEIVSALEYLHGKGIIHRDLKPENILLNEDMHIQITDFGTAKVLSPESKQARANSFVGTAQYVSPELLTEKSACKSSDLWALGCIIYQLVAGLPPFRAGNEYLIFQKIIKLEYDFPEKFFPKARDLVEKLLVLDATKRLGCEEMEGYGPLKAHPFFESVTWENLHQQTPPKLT

| Structure (SMILES) | IC50 (PDK1; inhibition of PDK1 in vitro) [nM] | EC50 [1, 2] [nM] | IC50 (PDK1; [3]) [nM] | EC50 [1, 4] [nM] | also measured |
| --- | --- | --- | --- | --- | --- |
| Nc1ccc(-c2ccc(CNc3ncc(C(F)(F)F)cc3C(=O)NCc3ccc(F)c(F)c3)cc2)cn1 [Example 370, 2-(4-(6-aminopyridin-3-yl)benzylamino)-N-(3,4-difluorobenzyl)-5-(trifluoro-methyl)nicotinamide] | < 100 | 1000 to 10000 |  |  |  |
| CC(C)Oc1cc(CNc2ncccc2C(=O)NCc2ccc(F)c(F)c2)cc(-c2ccc3ncnc(NC4CC4)c3c2)c1 [Example 5.5, 2-(3-(4-(cyclopropylamino)quinazolin-6-yl)-5-isopropoxy-benzylamino)-N-(3,4-difluorobenzyl)nicotinamide] |  |  | < 100 | > 10000 |  |
| Cc1nc(C)c(/C=C2\C(=O)Nc3cc(/C=C/CNc4ncccc4C(=O)NCc4ccc(F)c(F)c4)ccc32)[nH]1 [Example 15.14, N-(3,4-Difluoro-benzyl)-2-((E)-3-{3-[1-(2,5-dimethyl-3H-imidazol-4-yl)-meth-(Z)-ylidene]-2-oxo-2,3-dihydro-1H-indol-6-yl}-allylamino)-nicotinamide] |  |  | < 100 | < 1000 |  |
| CC(C)c1ccc(NC(=O)c2cc(C(F)(F)F)cnc2NCc2ccc(-c3cnc4[nH]nc(N)c4c3)cc2)cc1 [Example 280, 2-(4-(3-amino-1H-pyrazolo [3,4-b]pyridin-5-yl)benzylamino)-N-(4-isopropylphenyl)-5-(trifluoromethyl)nicotinamide] | 100 to 1000 | 1000 to 10000 |  |  |  |
| CC(C)Oc1cc(CNc2ncccc2C(=O)Nc2ccc(F)c(F)c2)cc(-c2c[nH]c3ncc(C(=O)NC4CC4)cc23)c1 [Example 4.1.1, N-cyclopropyl-3-(3-((3-(3,4-difluorophenylcarbamoyl)pyridin-2-ylamino)methyl)-5-isopropoxyphenyl)-1H-pyrrolo[2,3-b]pyridine-5-carboxamide] |  |  | 100 to 1000 | > 10000 |  |
| Nc1n[nH]c2ncc(-c3ccc(CNc4ncc(C(F)(F)F)cc4C(=O)N[C@@H](CO)c4ccc(F)cc4)cc3)cc12 [Example 308, (R)-2-(4-(3-amino-1H-pyrazolo [3,4-b]pyridin-5-yl)benzylamino)-N-(1-(4-fluorophenyl)-2-hydroxyethyl)-5-(trifluoromethyl)nicotinamide] | < 100 | < 1000 |  |  |  |
| C[C@H](NC(=O)c1nc(C#N)cnc1NCc1ccc(-c2cnc(N)c(CCC3CCNC3)n2)cc1)c1ccc(F)c(F)c1 (single isomer, unassigned) [Example 80] | < 100 |  |  |  | EC50 ([1]; inhibition of P308 Akt in PC-3 cells using MSD): 1000 to 10000 nM |
| C[C@H](NC(=O)c1cc(C#N)cnc1NCc1ccc(-c2cnc(N)c(C(=O)NCCN3CCOCC3)c2)cc1)c1ccc(F)cc1 [Example 202, (S)-2-amino-5-(4-((5-cyano-3-(1-(4-fluorophenyl)ethylcarbamoyl)pyridin-2-ylamino)methyl)phenyl)-N-(2-morpholinoethyl) nicotinamide] | < 100 | 1000 to 10000 |  |  |  |
| CC(N)CCc1nc(-c2ccc(CNc3ncc(C#N)cc3C(=O)N[C@@H](C)c3ccc(F)cc3)cc2)cnc1N (stereo partly drawn) [Example 85, 2-{4-[5-Amino-6-(3-amino-butyl)-pyrazin-2-yl]-benzylamino}-5-cyano-N-[(S)-1-(4-fluoro-phenyl)-ethyl]-nicotinamide] | < 100 | < 1000 |  |  |  |
| C[C@H](NC(=O)c1nc(C#N)cnc1NCC1CCC(c2cn(C)c3ncnc(N)c23)CC1)c1ccc(F)c(F)c1 (some centres unmarked) [Example 339] | 100 to 1000 |  |  |  | EC50 ([1]; Homo sapiens, PC-3, 2 h, inhibition of P308 Akt in PC-3 cells using MSD): > 10000 nM |
| Nc1cnc(-c2ccc(CNc3ncc(C(F)(F)F)cc3C(=O)NCc3ccc(F)cc3)cc2)cn1 [Example 383, 2-(4-(5-aminopyrazin-2-yl)benzylamino)-N-(4-fluorobenzyl)-5-(trifluoromethyl)nicotinamide] | < 100 | < 1000 |  |  |  |
| Cn1nc(-c2ccc(CNc3ncc(C(F)(F)F)cc3C(=O)NCc3ccc(F)c(F)c3)cc2)c2c(N)ncnc21 [Example 332, 2-(4-(4-amino-1-methyl-1H-pyrazolo[3,4-d]pyrimidin-3-yl)-benzylamino)-N-(3,4-difluorobenzyl)-5-(trifluoromethyl)nicotinamide] | < 100 | 1000 to 10000 |  |  |  |
| O=C(NCc1ccc(F)c(F)c1)c1ccccc1NCc1cccc(-c2c[nH]c3ncccc23)c1 [Example 1.20, 2-(3-(1H-pyrrolo[2,3-b]pyridin-3-yl)benzylamino)-N-(3,4-difluorobenzyl)benzamide] |  |  | < 100 | 1000 to 10000 |  |
| CC(C)Oc1cc(CNc2ncccc2C(=O)N(C)C2CC2)cc(-c2c[nH]c3ncc(C(=O)NC4CC4)cc23)c1 [Example 4.1.10, N-cyclopropyl-3-{3-[({3-[cyclopropyl(methyl)carbamoyl]pyridin-2-yl}amino)methyl]-5-(propan-2-yloxy)phenyl}-1H-pyrrolo[2,3-b] pyridine-5-carboxamide] |  |  | > 5000 | 1000 to 10000 |  |
| CCOC(=O)c1cccnc1NCc1cc(OC(C)C)cc(-c2cn(S(=O)(=O)c3ccccc3)c3ncc(C(=O)NC4CC4)cc23)c1 [4.1.17] |  |  | > 5000 |  | EC50 ([1]; inhibition of P308 Akt in PC-3 cells, MSD): > 10000 nM |
| CCCS(=O)(=O)Nc1cnc(NCc2ccc(-c3ccc4ncnc(N)c4c3)s2)c(C(=O)NCc2ccc(F)c(F)c2)c1 [Example 8.6.4] |  |  | 1000 to 5000 | 1000 to 10000 |  |
| C[C@H](NC(=O)c1nc(C#N)cnc1NCC1CCC(c2cc3c(N)ncnc3n2C)CC1)c1ccc(F)c(F)c1 (some centres unmarked) [Example 340] | > 5000 | 1000 to 10000 |  |  |  |
| CNC(=O)C[C@@H](Nc1ncc(C#N)cc1C(=O)N[C@@H](C)c1ccc(F)cc1)c1ccc(-c2c[nH]c3ncnc(N)c23)cc1 [Example 47, 2-((R)-1-(4-(4 - amino-7H-pyrrolo[2,3-d]pyrimidin-5-yl)phenyl)-3-(methylamino)-3-oxopropylamino)-5-cyano-N-((S)-1-(4-fluorophenyl)ethyl)nicotinamide] | < 100 | > 10000 |  |  |  |
| O=C(NCc1ccc(F)c(F)c1)c1cc(C(F)(F)F)cnc1NCc1ccc(-c2cnc3[nH]ncc3c2)cc1 [Example 2.37] |  |  | < 100 | < 1000 |  |

Second part, led by results:

| IC50 (PDK1; inhibition of PDK1 in vitro) [nM] | EC50 [1, 2] [nM] | IC50 (PDK1; [3]) [nM] | EC50 [1, 4] [nM] | Structure (SMILES) | also measured |
| --- | --- | --- | --- | --- | --- |
| 100 to 1000 | 1000 to 10000 |  |  | C[C@H](NC(=O)c1cc(C#N)cnc1NCc1ccc(-c2ccc(N)nc2)c(F)c1)c1ccc(F)cc1 [Example 129, (S)-2-(4-(6-aminopyridin-3-yl)-3-fluorobenzylamino)-5-cyano-N-(1-(4-fluorophenyl)ethyl) nicotinamide] |  |
| < 100 | < 1000 |  |  | CNC(=O)c1nc(-c2ccc(CNc3ncc(C#N)cc3C(=O)N[C@@H](C)c3ccc(F)cc3)cc2)cnc1N [Example 216, (S)-3-amino-6-(4-((5-cyano-3-(1-(4-fluorophenyl)ethylcarbamoyl)pyridin-2-ylamino)methyl)phenyl)-N-methylpyrazine-2-carboxamide] |  |
|  |  | > 5000 | > 10000 | C[C@H](NC(=O)c1cccnc1NCc1ccc(-c2ccc3ncc4[nH]c(=O)n(C)c4c3c2)s1)c1ccc(F)cc1 [Example 2.16, (S)-N-(1-(4-fluorophenyl)ethyl)-2-(((5-(1-methyl-2-oxo-2,3-dihydro-1H-imidazo[4,5-c]quinolin-8-yl)thiophen-2-yl)methyl)amino) nicotinamide] |  |
| < 100 | 1000 to 10000 |  |  | C[C@H](NC(=O)c1cc(C#N)cnc1NCc1ccc(-c2n[nH]c3ncnc(N)c23)cc1)c1ccc(F)cc1 [Example 96, 2-[4-(4-Amino-1H-pyrazolo [3,4-d]pyrimidin-3-yl)-benzylamino]-5-cyano-N-[(S)-1-(4-fluoro-phenyl)-ethyl]-nicotinamide] |  |
|  |  | < 100 | < 1000 | C[C@H](NC(=O)c1cc(C#N)cnc1NCc1ccc(-c2ccc3ncc4ncn(C)c4c3c2)s1)c1ccc(F)cc1 [Example 2.28, (S)-5-cyano-N-(1-(4-fluorophenyl)ethyl)-2-(((5-(1-methyl-1H-imidazo[4,5-c]quinolin-8-yl)thiophen-2-yl)methyl)amino) nicotinamide] |  |
| < 100 | < 1000 |  |  | CNC(=O)c1cc(-c2ccc(CNc3ncc(C#N)cc3C(=O)N[C@@H](C)c3ccc(F)cc3)cc2)cnc1N [Example 203, (S)-2-amino-5-(4-((5-cyano-3-(1-(4-fluorophenyl)ethylcarbamoyl)pyridin-2-ylamino)methyl)phenyl)-N-methylnicotinamide] |  |
|  |  | 100 to 1000 | > 10000 | Nc1ncnc2ccc(-c3ccc(CNc4ncccc4C(=O)NCc4cc(F)ccc4F)s3)cc12 [Example 3.6, 2-({[5-(4-aminoquinazolin-6-yl)thiophen-2-yl]methyl}amino)-N-(2,5-difluorobenzyl)pyridine-3-carboxamide] |  |
|  |  | 100 to 1000 | > 10000 | O=C(NCc1ccc(F)c(F)c1)c1cccnc1NCc1ccc(-c2ccc3ncnc(NCCN4CCCC4)c3c2)s1 [Example 4.20, N-(3,4-difluorobenzyl)-2-(((5-(4-(2-(pyrrolidin-1-yl)ethylamino)quinazolin-6-yl)thiophen-2-yl)methyl)amino)nicotinamide] |  |
|  |  | > 5000 | 1000 to 10000 | COc1cc2ncnc(-c3ccc(CNc4ncccc4C(=O)N[C@@H](C)c4ccc(F)cc4)s3)c2cc1OC [Example 2.12, (S)-2-(((5-(6,7-dimethoxyquinazolin-4-yl)thiophen-2-yl)methyl)amino)-N-(1-(4-fluorophenyl)ethyl) nicotinamide] |  |
